Patent US9987299B2, “Methods of improving RNAi in well-differentiated airway epithelia” (University of Iowa Research Foundation, priority 2014, dated 2018)

Key:
[1] = tested on: Human HPRT mRNA; assay: HPRT mRNA silencing by DsiRNA-Transductin in well-differentiated HAE (RT-qPCR); format: cell-based
Method: FIG. 1. […] (a) Well-differentiated HAE cultures grown at the ALI were incubated in adding HPRT-targeting or control NC1 DsiRNA (250 nM) formulated with Transductin containing 0.1 or 0.01 mg LOS (HPRT-targeting DsiRNAs) or 0.1 mg LOS (NC1 DsiRNA). After 4 hours, the apical surface was rinsed and 24 hours later, target RNA levels quantified by RT-qPCR. All mRNA levels were normalized to NC1-treated samples. Mean levels were calculated from three biological replicates, each done in triplicate. ***p<0.001, **p<0.01 (Student's t-test). […] Samples were normalized to NC1-treated cells. ***p<0.001, **p<0.01 (Student's t-test). […] PAFRa was present throughout transfection in cells pre-treated with the reagent. Cells were harvested and RNA quantified 24 hrs later. Samples were normalized to NC1-treated cells. **p<0.01 (Student's t-test).
FIG. 3. Spiperone improves RNAi responses in DsiRNA transduced cells. HAE were pre-treated with various small molecules at the concentration indicated. The drugs were added to the apical surface and the basolateral media for 6 hours. Both surfaces were then washed and HPRT or NC1 DsiRNA formulated with Transductin added to the apical surface. The cells were washed after 4 hours, and RT-qPCR done on cell lysates harvested 24 hours later.
Human airway epithelial cells were obtained from trachea and bronchi of lungs removed for organ donation from non-CF individuals. Cells were isolated by enzyme digestion as previously described. Following enzymatic dispersion, cells were seeded at a density of 5×10^5 cells/cm^2 onto collagen-coated, 0.6 cm^2 semi permeable membrane filters (Millipore polycarbonate filters; Millipore Corp., Bedford, Mass.). The cells were maintained at 37° C. in a humidified atmosphere of 5% CO2 air. Twenty-four hours after plating, the apical media was removed and the cells were maintained at an air-liquid interface (ALI) to allow differentiation of the epithelium. The culture medium consisted of 1:1 ratio mix of Dulbecco's modified Eagle's medium (DMEM)/Ham's F12, 5% Ultroser G (Biosepra S A, Cedex, France), 100 U/ml penicillin, 100 μg/ml streptomycin, 1% nonessential amino acids and 0.12 U/ml insulin. Studies were performed on well-differentiated epithelia approximately 4 to 6 weeks after initiation of the ALI cultures conditions. HEp-2 cells were maintained in MEM substituted with 10% fetal bovine serum and 100 U/ml penicillin.
PAF was purchased from Sigma-Aldrich. The reagent was reconstituted in ethanol and used in the experiment at a concentration of 200 nM or as described in the figures. PAF was added to the transfection mixture at the apical surface as well as to the basolateral media. PAFRa (WEB 2086) was purchased from Sigma-Aldrich. […] The reagent was incubated with the cells throughout the transfection period.
All the small molecules tested were purchased from Sigma-Aldrich. The chemicals were reconstituted in appropriate solutions as recommended by the manufacturer. The epithelia were pre-treated with drugs for 6 hours at concentrations used in the CMAP study or noted in the published literature. Following drug treatment, the epithelia were transduced with DsiRNA as described above.
For well-differentiated airway epithelia, transfection was performed mostly according to the manufacturer's protocol. In all cases, the apical surface of epithelia was rinsed twice with PBS before adding the transfection mixture to the apical surface. DsiRNAs were used at a concentration of 250 nM. The mixture was left on the cells for 4 hours after which the medium was removed, the apical surface rinsed with PBS and the cells incubated further for 24 hours. For all experiments, a minimum of 3 biological replicates, in triplicate, were done.
Total RNA was isolated using SV96 RNA isolation kit (Promega, Madison, Wis.), according to manufacturer's protocol. […]

[2] = tested on: CFTR channel activity; assay: Transepithelial short-circuit current and conductance in HAE; format: cell-based, human; conditions: PAF treated and CFTR DsiRNA transduced cells
[3] = tested on: HAE; assay: DIG-labeled DsiRNA entry and uptake into HAE (confocal imaging); format: cell-based, human; conditions: PAF-treated HAE, 1 hour after transduction with Transductin, compared with control HAE
Method: FIG. 2. PAF treatment enhances DsiRNA entry and uptake into cells. […] Blue, nuclei; green, DIG-labeled oligo. The images on the right and the left are from different fields.
The primary human airway epithelia grown at the air-liquid interface were transfected with the DIG-labeled DsiRNA at a concentration of 250 nM after complexing with Transductin. The transfection mixture was left on the apical surface for 1 h. At the end of this period, the cells were fixed in 2% formaldehyde, permeabilized in 0.2% Triton-x-100 and blocked in 1% BSA for 1 h. The cells were then stained with mouse antibody to DIG (Roche Biochemicals, Indianapolis, Ind.) for 1 h, followed by Alexa 488 labeled goat anti-mouse secondary antibody for 1 h, and then Alexa 488 labeled rabbit anti-mouse tertiary antibody (Life Technologies, Carlsbad, Calif.). In some cases an Alexa 564 goat anti-mouse secondary antibody was used. The cells were finally stained with nuclear stain, ToPro 3 for 10 minutes. The filter, containing the cells, was removed from the culture insert by cutting the edges with razor blade, and mounted on a slide with Vectashield (Vector Laboratories Inc, Burlingame, Calif.). The cells were visualized by confocal microscopy (Bio-Rad Radience 2100MP Multiphoton/Confocal Microscope, Bio-Rad, Hercules, Calif.).

## platelet activating factor [PAF]
[1]; 1 and 3 days post PAF-assisted transfection
  duration of knock down: HPRT mRNA levels: significantly reduced
[1]; 6 and 10 days post PAF-assisted transfection
  duration of knock down: HPRT transcript levels: returning to basal levels
[1]; PAF at different doses, 4 hours with HPRT DsiRNA-Transductin (FIG. 7)
  dose-response of PAF on DsiRNA silencing: A dose-response relationship for PAF on DsiRNA silencing was observed
[2]
  cAMP-activated changes in transepithelial current and conductance: significantly reduced
[3]
  amount of internalized DIG-labeled DsiRNA: substantial increase in the amount of internalized label
